Data: patent US20030186946A1, “Suppression of cytotoxic protein conformers” (priority 2002, published 2003)

Experiments:
[1] = target: T1, human amylin (Homo sapiens, UniProt P10997); settings: 1200 μM compound (20-fold molar excess), 60 μM human amylin, 10 μM thioflavin-T, over 24 h (FIG. 3)
T1 sequence (P10997 34-70 limits assumed): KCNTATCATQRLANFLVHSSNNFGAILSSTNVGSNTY
Method: Thioflavin-T binding fluorescent assays. The effects of various polycyclic compounds on islet amyloid formation were measured by fluorescence spectroscopy, using a SpectraMAX Gemini XS Fluorescence Spectrophotometer (Molecular Devices Corporation, Sunnyvale, Calif.). Excitation and emission maxima were set to 450 nm and 510 nm respectively using a cutoff filter at 495 nm. Thioflavin-T binds to amylin fibrils, but not to monomeric amylin (Goldsbury et al., (1999), J. Mol. Biol., 285:33-39). […] The rate of amylin fibril formation was determined by following thioflavin-T fluorescence in the presence or absence of the potential inhibitory drug. […] Background fluorescence by acridine and acridine orange in the absence of amylin was subtracted from the experimental results. The control preparation contained human amylin and thioflavin-T in the absence of drug. The rate of fluorescence enhancement under these conditions was used to compare amylin fibril formation in the absence and presence of the drug. All other experimental conditions were identical.
Tri-prolyl amylin and rat amylin with thioflavin-T were also used as additional controls.
Each data point represents the mean±s.e.m of three separate reactions.
Effect of chlorpromazine on enhancement of thioflavin-Tfluorescence by human amylin (FIG. 2). Chlorpromazine (700 μM) (π) was incubated in 10 mM tris p H 7.4, with monomeric human amylin (70 μM) in the presence of thioflavin-T (10 μM). The fluorescence of the reaction was monitored over 24 hours as described in the methods. […] Each data point represents the mean±s.e.m of three separate reactions.
Effect of selected polycylic compounds on enhancement of thioflavin-Tfluorescence by human amylin (FIG. 3). Acridine, acridine orange, neutral red and methylene blue are selected examples of fused tricyclic ring compounds. […] Compound structures are shown adjacent to the appropriate graph. […] Fluorescence was monitored over 24 h as described in the Methods. A preparation containing human amylin and thioflavin-T only (▪), was included as a comparison in the absence of drug. […] Each data point represents the mean±s.e.m of three independent experiments.

[2] = tested on: RINm5F cells
Method: Cell Culture and Cytotoxicity Assays. RINm5F cells were cultured in RPMI 1640 medium containing 10% fetal bovine serum, 290 μg/mL L-glutamine, 100 IU/mL penicillin and 100 μg/mL streptomycin. Cells were plated at a density of 15×1 cells per well, incubated for 48 h, rinsed with PBS and placed in fresh medium containing Congo red. Freshly prepared human amylin in Milli-Q water, was preincubated with Congo red for 30 min, then added to the cell culture medium to give a final concentration of 30 μM. Cells were treated for 22 h with human amylin in the presence or absence of 100 μM Congo red. Cell viability was determined by double-staining with calcein-AM and ethidium homodimer-1. Green fluorescence of live cells and red fluorescence marking nuclei of dead cells were simultaneously visualized using a Zeiss Axiovert S100 microscope equipped with a Zeiss filter set # 09. Photographs were taken at 400× magnification using a Zeiss AxioCam digital camera.
A. Representative fluorescence micrograph of RINm5F cells treated with 30 μM human amylin for 22 h and stained with calcein-AM and ethidium homodimer-1 to show live cells (green) and dead cells (red). […] B. A representative micrograph of RINm5F cells treated with 30 μM human amylin and 100 μM Congo red stained as above. […] The percentage of live cells was determined for cells treated for 22 h with vehicle; 30 μM human amylin; 30 μM human amylin in the presence of 100 μM Congo red; or 30 μM rat amylin. Experiments were repeated independently 10 times except for human amylin plus Congo red (A+CR) which was repeated five times. Error bars represent the s.e.m of live and dead cell counts over 6-12 fields per condition.

[3] = target: T1, human amylin; assay: Electron microscopy of human amylin fibrils; assay type: biochemical; parameters: Amylin is a 37-residue; C-terminally amidated peptide having a disulfide bridge between the cysteines at residues 2 and 7; purchased Bachem Calif; (Torrance, Calif.); host or cells: chemical synthesis; settings: 1200 μM compound, 60 μM human amylin, 10 mM tris pH 7.4, 24 h (FIG. 6)
Method: Electron Microscopy. […] Samples were removed at various time points and prepared for electron microscopy. Aliquots (8 μl) of the amylin fibril preparations were absorbed to glow-discharged carbon-coated collodion film on 200-mesh copper grids for 1 min. Grids were blotted, washed twice in droplets of deionised water and stained with 2% (w/v) uranyl acetate. Grids were examined in a Phillips Technai transmission electron microscope operated at 120 kV.
Samples were removed at various time points and prepared for electron microscopy according to the procedure described in the methods.
Electron Microscopy of human amylin fibrils in the presence and absence of quinacrine (FIG. 5). A 100 fold molar excess of quinacrine was incubated with human amylin. Samples were removed at various time points and prepared for electron microscopy according to the procedure described in the methods.
Electron Microscopy of human amylin fibrils in the presence and absence of selected polycyclic compounds (FIG. 6). […] Samples were removed and prepared for electron microscopy as described in the Methods. All experiments were performed in triplicate and the pictures above are representative of at least 6 photographs taken at each magnification.

[4] = target: T1, human amylin; assay: Radiolabelled precipitation assay of amylin fibril formation; assay type: biochemical; parameters: Amylin is a 37-residue; C-terminally amidated peptide having a disulfide bridge between the cysteines at residues 2 and 7; purchased Bachem Calif; (Torrance, Calif.); host or cells: chemical synthesis; settings: 200 μM compound
Method: Radiolabelled Precipitation Assays. The precipitation of radiolabelled human and rat amylin fibrils was used as an independent method to monitor assembly of amylin fibrils in the presence or absence of potential inhibitors of amylin fibril formation. […] Incubation mixtures were then centrifuged at either 16,000×g or 100,000×g, for 20 min, and the amount of [^3H]-human amylin remaining in the supernatant after centrifugation was determined (Beckman LSW 3801 β-counter, USA). Results were expressed as percentages of precipitable counts per minute, relative to total radioactivity in the supernatant.
Incorporation of [^3H]-amylin into amylin fibrils was followed for 24 hours. Human amylin fibrils were precipitated by centrifugation at either 16,000×g (FIG. 7A) or at 100,000×g (FIG. 7B). Rat amylin (10 μM) in the presence of [^3H]-rat amylin was used as a non-fibril forming control (♦) (FIG. 7A). The results are shown as the percentage of precipitable radioactive amylin, relative to total radioactivity in the supernatant at each time point. Each data point represents the mean±s.e.m of three separate reactions.
The incorporation of radioactive monomeric amylin into the human amylin fibrils as they form, can be used to measure the rate at which amylin fibrils form in the presence or absence of a potential inhibitory drug. Amylin fibrils can be separated from solution by centrifugation and the amount of radioactive amylin precipitated in the amylin fibril pellet is then used as a measure of the amount of amylin fibrils present at that time.
Thioflavin-T, although not polycyclic, is widely used in fluorescent assays to measure amylin fibril formation. Incorporation of radioactivity into the pellet of an aliquot of the reaction mixture centrifuged at 16,000×g, for 20 minutes was monitored over the time periods indicated. Rat amylin (10 μM) with [^3H]-rat amylin added was used as a non fibril forming control (∘) in each experiment. The results are shown as the percentage of precipitable radioactive amyloid, relative to total radioactivity in the supernatant at each time point. Each data point represents the mean±s.e.m of three separate experiments.

| SMILES | enhancement of thioflavin-T fluorescence by human amylin [1] | intrinsic cytotoxicity of compound to RINm5F β cells [2] | morphology of human amylin fibrils (electron microscopy) [3] | effect on precipitable amyloid formation ([4]; 10 μM human amylin, 16,000×g (FIG. 8)) | level of precipitable amyloid ([4]; 10 μM human amylin, after 72 h) [%] | overall decrease in precipitable amyloid ([4]; 10 μM human amylin, after 72 h) [%] |
| --- | --- | --- | --- | --- | --- | --- |
| Cc1cc2nc3ccc(N(C)C)cc3nc2cc1N [neutral red] | no increase in thioflavin-T enhanced fluorescence | cytotoxic | still formed characteristic amylin fibrils | small but significant reduction |  |  |
| CN(C)c1ccc2cc3ccc(N(C)C)cc3nc2c1 [acridine orange] | no increase in thioflavin-T enhanced fluorescence | cytotoxic |  |  | 50 | 30 |
